Like-named read-outs stand apart in the source and are kept apart here.
What was measured:
Assay in all cases: microbe, parasite or virus in culture
Format in all cases: cell-based, Hepatitis C virus (HCV)
[1] = test system: HCV replicon 1A; details: Replicon Assay A
Outline: (§1)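 HCV replicon RNA levels were quantified by TaqMan RT-PCR after 3-day compound exposure (0.5% DMSO, 5% FBS). Cyclophilin RNA, co-amplified in the same reaction, served as endogenous control; Ct values were converted to RNA amounts using linear regression standard curves.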

[2] = test system: HCV replicon 2B; details: Replicon Assay A
Outline: as §1

[3] = test system: HCV replicon 1AY93H; details: Replicon Assay A
Outline: as §1

[4] = test system: HCV replicon 1B; details: Replicon Assay B
[5] = test system: HCV replicon 1AQ30D; details: Replicon Assay B
[6] = read-out: 1A Y93H IC50, replicon 1AY93H
[7] = read-out: 1A Q30D IC50, replicon 1AQ30D
[8] = Hepatitis C virus, read-out: 1A Q30D IC50 (nM), replicon 1AQ30D
[9] = read-out: 2B IC50, HCV replicon 2B
[10] = read-out: 1A Y93H IC50, HCV replicon 1A Y93H
[11] = read-out: 1A Q30D IC50, HCV replicon 1A Q30D
[12] = Hepatitis C virus, HCV replicon 1B
[13] = Hepatitis C virus, read-out: 1A Q30D IC50, HCV replicon 1A Q30D

Row | Compound | IC50 ([2]; read-out: 2B IC50, replicon 2B) [nM] | IC50 [3, 6] [nM] | IC50 ([4]; Hepatitis C virus, replicon 1B) [nM] | IC50 [5, 7] [nM] | IC50 ([1]; replicon 1A) [nM] | IC50 ([4]; replicon 1B) [nM] | IC50 ([1]; HCV replicon 1A) [nM] | IC50 [2, 9] [nM] | IC50 [3, 10] [nM] | other results
1 | COC(=O)NC(C(=O)N1CCC[C@H]1c1ncc(-c2ccc3c(c2)cc2n3C(c3ccc(C4CC4)s3)Oc3cc(-c4cnc([C@@H]5CCCN5C(=O)[C@@H](NC(=O)OC)C(C)C)[nH]4)cc(F)c3-2)[nH]1)C1CCCCO1 (single isomer, unassigned) [Compound 340] | 0.0212 | 0.0207 | 0.0025 | 0.2 | – | – | – | – | – | IC50 ([1]; Hepatitis C virus, replicon 1A): 0.0011 nM
2 | CCCc1ccc(C2Oc3cc(-c4cnc([C@@H]5CCCN5C(=O)[C@@H](NC(=O)OC)C(C)C)[nH]4)cc(F)c3-c3cc4cc(-c5cnc([C@@H]6CCCN6C(=O)[C@@H](NC(=O)OC)C6CCOCC6)[nH]5)ccc4n32)s1 (single isomer, unassigned) [Compound 347] | 0.0028 | 0.0023 | – | 0.0129 | 0.0019 | 0.0026 | – | – | – | –
3 | COC(=O)NC(C(=O)N1CCC[C@H]1c1ncc(-c2cc(F)c3c(c2)OC(c2ccc(C4CC4)s2)n2c-3cc3cc(-c4cnc([C@@H]5CCCN5C(=O)[C@@H](NC(=O)OC)C(C)C)[nH]4)ccc32)[nH]1)C1CCOC(C)(C)C1 (single isomer, unassigned) [Compound 216] | 0.31 | 0.18 | – | 1.03 | 0.0017 | 0.0033 | – | – | – | –
4 | COC(=O)NC(C(=O)N1CCC[C@H]1c1ncc(-c2cc(F)c3c(c2)OC(c2ccc(C4CCC4)s2)n2c-3cc3cc(-c4cnc([C@@H]5CCCN5C(=O)[C@@H](NC(=O)OC)C5CCOCC5)[nH]4)ccc32)[nH]1)C(C)(C)F (single isomer, unassigned) [Compound 248] | 0.076 | 0.11 | 0.0032 | – | 0.0025 | – | – | – | – | IC50 [5, 8]: 0.43 nM
5 | CCc1ccc(C2Oc3cc(-c4cnc([C@@H]5CCCN5C(=O)[C@@H](NC(=O)OC)C(C)C)[nH]4)ccc3-c3c(F)c4cc(-c5cnc([C@@H]6CCCN6C(=O)C(NC(=O)OC)C6C[C@@H](C)O[C@@H](C)C6)[nH]5)ccc4n32)s1 (single isomer, unassigned) [Compound 635] | – | – | – | – | – | – | 0.0024 | 0.0225 | 0.0272 | IC50 ([4]; HCV replicon 1B): 0.0024 nM; IC50 [5, 11]: 0.744 nM
6 | COC(=O)NC(C(=O)N1CCC[C@H]1c1ncc(-c2ccc3c(c2)cc2n3C(c3ccc(CC(C)(C)OC)s3)Oc3cc(-c4cnc([C@@H]5CCCN5C(=O)[C@@H](NC(=O)OC)C(C)C)[nH]4)cc(F)c3-2)[nH]1)C1CCOC(C)(C)C1 (some centres unmarked) [Compound 848] | – | – | – | – | – | – | – | – | – | IC50 ([1]; Hepatitis C virus, HCV replicon 1A): 0.0029 nM; IC50 ([2]; Hepatitis C virus, read-out: 2B IC50, HCV replicon 2B): 0.026 nM; IC50 ([3]; Hepatitis C virus, read-out: 1A Y93H IC50, HCV replicon 1A Y93H): 0.01 nM; IC50 [4, 12]: 0.0045 nM; IC50 [5, 13]: 0.085 nM
7 | COC(=O)N[C@H](C(=O)N1CCC[C@@H]1c1ncc(-c2cc(F)c3c(c2)OC(c2ccc(C(C)C)s2)n2c-3cc3cc(-c4c[nH]c([C@@H]5C[C@@H]6C[C@@H]6N5C(=O)[C@H](NC(=O)OC)C5C[C@@H](C)O[C@@H](C)C5)n4)ccc32)[nH]1)C(C)C (some centres unmarked) [Compound 284] | – | – | 0.0021 | – | – | – | – | – | – | IC50 ([1]; Hepatitis C virus, replicon 1A): 0.0018 nM; IC50 ([2]; Hepatitis C virus, read-out: 2B IC50 (nM), replicon 2B): 0.024 nM; IC50 ([3]; Hepatitis C virus, read-out: 1A Y93H IC50 (nM), replicon 1AY93H): 0.002 nM; IC50 [5, 8]: 0.021 nM
8 | COC(=O)N[C@H](C(=O)N1CCC[C@H]1c1ncc(-c2cc(C)c3c(c2)OC(c2ccc(C4CC4)s2)n2c-3cc3cc(-c4cnc([C@@H]5C[C@H]6C[C@H]6N5C(=O)[C@@H](NC(=O)OC)C5CCOCC5)[nH]4)ccc32)[nH]1)C(C)C (single isomer, unassigned) [Compound 763] | – | – | – | – | – | – | 0.0027 | 0.062 | 0.12 | IC50 ([4]; HCV replicon 1B): 0.0025 nM; IC50 [5, 11]: 2.15 nM
9 | CCc1ccc(C2Oc3cc(-c4cnc([C@@H]5CCCN5C(=O)C(NC(=O)OC)C5CCOC(C)(C)C5)[nH]4)cc(F)c3-c3cc4cc(-c5cnc([C@@H]6CCCN6C(=O)[C@@H](NC(=O)OC)C(C)C)[nH]5)ccc4n32)s1 (single isomer, unassigned) [Compound 163] | 0.063 | 0.058 | – | 0.17 | 0.0184 | 0.0313 | – | – | – | –
10 | CCc1ccc(C2Oc3cc(-c4cnc([C@@H]5CCCN5C(=O)[C@@H](NC(=O)OC)C(C)C)[nH]4)cc(C)c3-c3cc4cc(-c5cnc([C@@H]6CCCN6C(=O)C(NC(=O)OC)C6C[C@@H](C)O[C@H](C)C6)[nH]5)ccc4n32)s1 (single isomer, unassigned) [Compound 545] | – | – | – | – | – | – | 0.00355 | 0.00645 | 0.024 | IC50 [4, 12]: 0.00598 nM; IC50 [5, 13]: 0.11 nM

Reference: US20160257697A1, “THIOPHENE-SUBSTITUTED TETRACYCLIC COMPOUNDS AND METHODS OFUSE THEREOF FOR THE TREATMENT OF VIRAL DISEASES” (priority 2013, published 2016)
